Test results taken from patent US20210177814A1, “USE OF GUANABENZ OR DERIVATES THEREOF FOR THE TREATMENT OF TYPE I IFN-DEPENDENT PATHOLOGIES” (INSERM (Institut National de la Santé et de la Recherche …, priority 2018, published 2021).

Biological target: T1, hTLR3 (Homo sapiens, UniProt O15455)
T1 construct: expressed in transfected cells; host or cells: HEK-Blue (HEK 293) hTLR3 reporter cells
T1 sequence (O15455 24-904): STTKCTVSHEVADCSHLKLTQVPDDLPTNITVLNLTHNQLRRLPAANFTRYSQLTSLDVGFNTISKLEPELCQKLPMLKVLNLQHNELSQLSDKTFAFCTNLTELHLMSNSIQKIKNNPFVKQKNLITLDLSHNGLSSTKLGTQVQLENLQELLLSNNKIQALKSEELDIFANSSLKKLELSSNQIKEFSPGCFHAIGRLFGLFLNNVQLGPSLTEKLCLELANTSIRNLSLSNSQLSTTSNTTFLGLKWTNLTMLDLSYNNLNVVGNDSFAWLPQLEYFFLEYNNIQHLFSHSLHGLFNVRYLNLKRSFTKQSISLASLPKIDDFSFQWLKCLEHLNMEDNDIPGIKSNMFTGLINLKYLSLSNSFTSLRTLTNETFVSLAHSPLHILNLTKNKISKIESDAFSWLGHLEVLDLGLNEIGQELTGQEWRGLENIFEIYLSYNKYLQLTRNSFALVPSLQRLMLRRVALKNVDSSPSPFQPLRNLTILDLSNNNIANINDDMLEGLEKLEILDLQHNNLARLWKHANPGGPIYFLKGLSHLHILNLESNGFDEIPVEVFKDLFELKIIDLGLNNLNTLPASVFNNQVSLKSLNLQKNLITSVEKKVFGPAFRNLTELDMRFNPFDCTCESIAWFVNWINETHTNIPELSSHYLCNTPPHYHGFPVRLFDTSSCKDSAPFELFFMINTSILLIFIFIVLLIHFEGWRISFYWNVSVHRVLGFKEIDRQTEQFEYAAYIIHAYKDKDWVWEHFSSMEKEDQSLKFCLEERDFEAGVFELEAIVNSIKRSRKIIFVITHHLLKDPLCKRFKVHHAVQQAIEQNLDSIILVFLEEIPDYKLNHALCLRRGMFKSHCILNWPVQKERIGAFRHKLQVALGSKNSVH
Assay: HEK-Blue hTLR3 SEAP reporter assay
Assay type: cell-based
Settings: 10 μg/mL poly I:C LMW, GBZ 50 μM
Procedure: FIG. 1: Guanabenz inhibits TLR3 and TLR9 activation in mouse Flt3-L DCs and human blood pDCs. A) Sorted bone marrow derived Flt3L-DCs were activated for 6 h with 10 μg/mL poly I:C LMW (TLR3 in DC1) or 1 μM ODN 1585 (TLR9 in pDCs). GBZ was added at 50 μM and inhibited IFN-β and Interleukin-6 (IL-6) production in activated cells. B) hTLR4, hTLR3, hTLR9 and hTLR7 expressed in the reporter HEK-Blue™ cells are inhibited by GBZ. TLR-expressing HEK-Blue™ cells were respectively activated with 100 ng/mL LPS, 10 μg/mL poly I:C LMW, 2.5 μM ODN 2006 or 5 μg/mL imiquimod, respectively. GBZ was added at 50 μM. TLR activity was measured indirectly through SEAP activity as absorbance at 405 nm. […] Protein concentration of IFN-α and TNF-α secreted were measured at the indicated time points or at 16 h. […]
Given the efficiency of GBZ on mouse TLR3 and TLR9, we turned to human TLRs, in order to extend the relevance of our observations. GBZ-mediated inhibition was first evaluated on NF-kB signaling by monitoring secreted alkaline phosphatase (SEAP) reporter levels in HEK-293 cells expressing TLR3, TLR4, TLR7, TLR9 (FIG. 1B). […] The functionality of the TLR9 transduction pathway was next evaluated by using phospho-flow detection of 40S ribosomal protein S6 (rpS6) phosphorylation, a well characterized early signaling event down-stream of TLR activation by LPS or viruses.

NC(N)=N/N=C/c1c(Cl)cccc1Cl [GBZ, 2-(2,6-dichlorobenzylidene)-hydrazinecarboximidamide]
TLR3-dependent activation of the SEAP reporter: inhibited
